Experiments:
[1] = system: Leigh syndrome patient cells (KCMC10); assay: Test III: suppression of RSL-3-induced ferroptosis, Leigh syndrome patient cells; format: cell-based, human; settings: 100 nM RSL-3 coadded with test compound; FIG. 34
From the text: (§1) Apomorphine and idebenone approved as a therapeutic drug for Leber's hereditary optic neuropathy in the Europe were used as control drugs.
(§2) In the drawing, A depicts the results obtained using compounds D8, D9, D10, D18, D20, D26, and D36, and B depicts the results obtained using compounds D37, D38, D39, D40, D41, D42, and D43. In the drawing, the abscissa depicts test compounds, and the ordinate depicts the cell viability (%) of each treated plot when the number of live cells in a control non-supplemented with RSL-3 is defined as 100%.

dopamine D2 receptor = dopamine D2 receptor (Homo sapiens (Human), UniProt P14416); assay: Test IV: dopamine D2 receptor binding activity (GeneBLAzer D2-Gqo5-NEAT-bla CHO-K1 Cell-based Assay); settings: for Dopamine D2 receptor binding activity, Activity intensity: CHO-K1 reporter cells, 5 hours
dopamine D2 receptor, sequence (P14416 whole entry): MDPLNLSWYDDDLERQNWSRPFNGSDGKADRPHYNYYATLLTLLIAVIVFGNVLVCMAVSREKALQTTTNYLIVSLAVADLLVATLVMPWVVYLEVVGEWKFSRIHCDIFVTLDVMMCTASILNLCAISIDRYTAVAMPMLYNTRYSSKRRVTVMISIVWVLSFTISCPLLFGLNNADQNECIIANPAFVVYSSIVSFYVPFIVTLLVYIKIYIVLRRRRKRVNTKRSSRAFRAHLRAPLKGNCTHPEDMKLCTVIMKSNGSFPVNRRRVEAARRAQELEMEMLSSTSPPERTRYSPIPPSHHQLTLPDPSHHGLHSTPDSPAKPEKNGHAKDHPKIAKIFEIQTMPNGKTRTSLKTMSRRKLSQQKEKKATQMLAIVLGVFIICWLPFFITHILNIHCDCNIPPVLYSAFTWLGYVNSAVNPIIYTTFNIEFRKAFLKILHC
Procedure: In this test, the dopamine D2 receptor binding activity of each test compound was measured using GeneBLAzer D2-Gqo5-NEAT-bla CHO-K1 Cell-based Assay (Thermo Fisher Scientific, Inc.). The CHO cells are designed such that a signal transduction pathway is activated by addition of a drug to express a reporter gene (P lactamase). […] Therefore, the binding activity of the test compound can be measured by measuring a blue fluorescence/green fluorescence ratio. The CHO cells were inoculated at 10,000 cells/well to a 384-well plate and cultured for 16 to 20 hours in a CO2 incubator. […] A substrate mix was added to the cells and incubated at room temperature for 2 hours. […] The respective EC50 values of the test compounds were determined from the measured fluorescence ratios using GraphPad Prism 8.

[2] = system: MELAS patient cells (ME169); assay: Test III: suppression of RSL-3-induced ferroptosis, MELAS patient cells; format: cell-based, human; settings: 100 nM RSL-3 coadded with test compound; FIG. 35
From the text: as §1, §2

[3] = system: Leigh syndrome patient cells (KCMC10); assay: Test III: suppression of BSO-induced ferroptosis, Leigh syndrome patient cells; format: cell-based, human; settings: for cell death ascribable to ferroptosis induced by BSO: 100 μM BSO coadded with test compound, FIG. 32; for EC50: Homo sapiens, read-out: EC50 (50% effective concentration of the suppressive effect on cell death ascribable to ferroptosis induced by BSO); for EC50 / ferroptosis inhibitory effect (judged from EC50 value): Leigh syndrome patient cells (KCMC10), BSO; for ferroptosis inhibitory effect (judged from EC50 value): Table 3
From the text: as §1
(§3) In the drawing, A depicts the results obtained using compounds D8, D9, D10, D18, D20, D26, and D36, and B depicts the results obtained using compounds D37, D38, D39, D40, D41, D42, and D43. In the drawing, the abscissa depicts test compounds, and the ordinate depicts the cell viability (%) of each treated plot when the number of live cells in a control non-supplemented with BSO is defined as 100%.

[4] = system: MELAS patient cells (ME169); assay: Test III: suppression of BSO-induced ferroptosis, MELAS patient cells; format: cell-based, human; settings: 80 μM BSO coadded with test compound; FIG. 33
From the text: as §1, §3

[5] = system: human liver cancer cell line (Huh7); assay: Test V: suppression of RSL-3-induced cell death in liver cancer cell system (LDH, MTT); format: cell-based; design: key to LDH (LDH activity, cell death): relative to control without RSL-3 (= 1); settings: Huh7, test compound 1 μM (GSK872 5 μM) 1 hour, then RSL-3 0.5 μM 24 hours, relative value, control non-supplemented with RSL-3 = 1; for viability at 1 µM: Homo sapiens, Huh-7, read-out: MTT (cell proliferation and cell viability)
Procedure: The ferroptosis inducer used was RSL-3.
At the stage where 70% confluency was attained, the medium was replaced with the medium for the test, and DMSO or each test compound (final concentration of GSK872: 5 μM, and final concentration of the other compounds: 1 μM) was added to the cells in each well, which were then cultured for 1 hour. Then, the ferroptosis inducer (final concentration: 0.5 μM) was added to the cells in each well, which were then cultured for 24 hours. After the completion of culture, cell death suppressive activity was measured with lactate dehydrogenase (LDH) activity as an index while cell proliferation and cell viability were measured with activity of reducing yellow tetrazolium salt (MTT) into formazan as an index.
The values in the table are relative values when the LDH activity and MTT value of a control non-supplemented with RSL-3 are each defined as 1.

SH-SY5Y cells = assay: Test VI: inhibition of rotenone-induced neuronal death (LDH assay); format: cell-based, human; design: key: ++: the case where a concentration-dependent inhibitory effect on rotenone-induced cell death was able to be confirmed twice; +: In the third test, the case where the concentration-dependent inhibitory effect was able to be confirmed; ±: the case where no concentration-dependent inhibitory effect was able to be confirmed; −: The case where any inhibitory effect on rotenone-induced cell death was able to be confirmed in none of the two tests; settings: rotenone 1 μM, compound 10 nM-10 μM (Apo 0.1 nM-10 μM), 48 hours
Procedure: After the completion of culture, rotenone-induced cell death was measured using Cytotoxicity LDH Assay Kit-WST (Dojindo Laboratories). […] The test was conducted twice, and the case where a concentration-dependent inhibitory effect on rotenone-induced cell death was able to be confirmed twice was rated as (++). If the inhibitory effect was confirmed in one of the two tests and no inhibitory effect was confirmed in the other test, the third test was conducted. In the third test, the case where the concentration-dependent inhibitory effect was able to be confirmed was rated as (+), and the case where no concentration-dependent inhibitory effect was able to be confirmed was rated as (±). The case where any inhibitory effect on rotenone-induced cell death was able to be confirmed in none of the two tests was rated as (−).

Row | SMILES | cell death ascribable to ferroptosis induced by RSL-3 [1] | dopamine D2 receptor binding activity (in words) (dopamine D2 receptor) | Dopamine D2 receptor binding activity, Activity intensity (dopamine D2 receptor) | cell death ascribable to ferroptosis induced by RSL-3 [2] | cell death ascribable to ferroptosis induced by BSO [3] | EC50 [3] [nM] | cell death ascribable to ferroptosis induced by BSO [4] | viability at 1 µM [5] [%] | LDH (LDH activity, cell death) [5] | ferroptosis inhibitory effect (judged from EC50 value) [3] | Inhibitory effect on rotenone-induced cell death (SH-SY5Y cells)
1 | COc1cccc2c1C[C@@H]1c3c(cc4c(c3-2)OCO4)CCN1C [D9] | suppressed | no or little | − | suppressed | markedly suppressed | 393 | markedly suppressed |  |  |  | 
2 | COc1cc(O)c2c(c1)C[C@@H]1c3c(cc4c(c3-2)OCO4)CCN1C [D10] | suppressed | no or little | − | suppressed | markedly suppressed | 750 | markedly suppressed |  |  |  | 
3 | CN1CCc2cccc3c2[C@H]1Cc1ccc(OCCCc2ccccc2)c(O)c1-3.Cl [D37] |  | no or little | − |  |  | 186 |  | 80 | 0.85 | particularly high | ++
4 | CN1CCc2cccc3c2[C@H]1Cc1ccc(OCCCO)c(O)c1-3.Cl [D38] |  | no or little | ± |  |  |  |  | 81 | 1.66 | particularly high | ++
5 | CN1CCc2cccc3c2[C@H]1Cc1ccc(OCCCCl)c(O)c1-3.Cl [D39] |  | no or little | − |  |  | 259 |  | 80 | 1.15 |  | +
6 | CCCOc1ccc2c(c1O)-c1cccc3c1[C@@H](C2)N(C)CC3.Cl [D40] |  | no or little | − |  |  | 55 |  | 84 | 1.15 | particularly high | +
7 | CCCCCCCCCOc1ccc2c(c1O)-c1cccc3c1[C@@H](C2)N(C)CC3.Cl [D41] |  | no or little | − |  |  | 648 |  |  |  |  | 
8 | CN1CCc2cccc3c2[C@H]1Cc1ccc(OCCCC(F)(F)F)c(O)c1-3.Cl [D42] |  | no or little | − |  |  | 167 |  | 82 | 1.55 | particularly high | +
9 | COc1ccc2c(c1O)-c1c(OC)c(OC)cc3c1[C@@H](C2)N(C)CC3 [D43] |  | no or little | − |  |  | 223 |  | 49 | 6.52 |  | −
10 | CN1CCc2cccc3c2[C@H]1Cc1ccc(-c2ccccc2)c(O)c1-3 [D45] |  | no or little | ± |  |  | 96 |  | 77 | 0.43 | particularly high | ++
11 | CN1CCc2cccc3c2[C@H]1Cc1ccc(OCc2ccccc2)c(O)c1-3 [D47] |  | no or little | − |  |  | 124 |  | 71 | 0.39 | particularly high | ++
12 | CN1CCc2cccc3c2[C@H]1Cc1ccc(OCCc2ccccc2)c(O)c1-3 [D48] |  | no or little | − |  |  | 128 |  | 78 | 0.44 | particularly high | ++
13 | CN1CCc2cccc3c2[C@H]1Cc1ccc(OCCCCc2ccccc2)c(O)c1-3 [D50] |  | no or little | − |  |  | 207 |  | 60 | 0.43 |  | ++
14 | CN1CCc2cccc3c2[C@H]1Cc1ccc(OCCC(c2ccccc2)c2ccccc2)c(O)c1-3 [D54] |  | no or little | − |  |  |  |  | 68 | 0.43 |  | −
15 | CCOc1ccc2c(c1O)-c1cccc3c1[C@@H](C2)N(C)CC3 [D55] |  | no or little | − |  |  | 4 |  | 78 | 0.44 | particularly high | +

— US12441734B2, “Ferroptosis inhibitor and use therefor” (JICHI MEDICAL UNIVERSITY, priority 2021, dated 2025)
